Data on two compounds can be found in US9259406B2, “Antitumor combinations containing antibodies recognizing specifically CD38 and melphalan” (SANOFI, priority 2008, dated 2016).

Several values for one entry are separate records, joined by “and”; a condition that tells them apart may be missing. Equal entries are not always repeated. Entries after “also recorded” stand apart in the source; their conditions may differ. Where two headings read alike, the source gives them in different places.

For data set [1], the system named is human multiple myeloma LP1.
In data set [2] the test system is human multiple myeloma RPMI-8226.
The target of another data set is T1, murine CD38 (Mus musculus, UniProt P56528).
T1 sequence (P56528 1-304): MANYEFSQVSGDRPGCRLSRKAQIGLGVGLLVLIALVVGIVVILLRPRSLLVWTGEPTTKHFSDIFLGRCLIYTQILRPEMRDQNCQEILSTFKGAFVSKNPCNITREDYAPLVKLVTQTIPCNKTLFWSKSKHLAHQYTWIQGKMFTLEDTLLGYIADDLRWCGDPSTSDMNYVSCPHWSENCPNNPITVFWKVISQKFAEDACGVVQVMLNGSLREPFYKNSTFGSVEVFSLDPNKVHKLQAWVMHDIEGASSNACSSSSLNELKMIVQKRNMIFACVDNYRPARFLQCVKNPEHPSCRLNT
The data set is described as follows: cross-reactivity of the antibody with murine CD38. In kind it is binding.

Setting [3] is: melphalan IV 3.8 mg/kg/inj (total 15.2), days 12, 15, 18, 21.
Setting [4] is: melphalan IV 6.2 mg/kg/inj (total 24.8), days 12, 15, 18, 21.
Setting [5] is: melphalan IV 10.0 mg/kg/inj (total 40.0), days 12, 15, 18, 21.
[6] abbreviates: melphalan IV 16.1 mg/kg/inj (total 48.3), treatments stopped on day 18.
Setting [7] is: melphalan alone IV, total injected dose 40 mg/kg.
Setting [8] is: melphalan IV 3.8 mg/kg/inj (total 15.2), days 16, 19, 22, 25.
The mark [9] stands for this setting: melphalan IV 6.2 mg/kg/inj (total 24.8), days 16, 19, 22, 25.
The mark [10] stands for this setting: melphalan IV 10.0 mg/kg/inj (total 40.0), days 16, 19, 22, 25.
The mark [11] stands for this setting: hu38SB19 IV 40.0 mg/kg/inj (total 160.0), days 12, 15, 18, 21.

In the case of `N[C@@H](Cc1ccc(N(CCCl)CCCl)cc1)C(=O)O` [melphalan], the Comments entry was “Moderately active” in data set [1] (setting [3]); “Highly active” in data set [1] (setting [4]); “Toxic” in data set [1] (setting [6]); “Moderately active” in data set [2] (setting [8]); “Active” in data set [2] (setting [9]); “HNTD, active” in data set [2] (melphalan IV 10.0 mg/kg/inj (total 40.0), days 16, 19, 22, 25, 10 mg/kg). In data set [2] (melphalan IV 16.1 mg/kg/inj (total 32.2), days 16, 19), the Comments entry is listed as “Toxic”. Moreover, the “T-C in days (1000 mg)” value in data set [1] (setting [3]) was determined as 4.1 days; in data set [1] (setting [4]), 17.4 days; in data set [1] (setting [5]), 46.5 days; in data set [2] (setting [8]), 8.5 days; in data set [2] (setting [9]), 9.5 days; in data set [2] (setting [10]), 20.0 days. In addition, the results for the “log10 cell kill gross” value in data set [1] (setting [3]), in data set [1] (setting [4]) and in data set [1] (setting [5]) were 0.8, 3.5 and 9.3, respectively. Further, the “% BWC at nadir (day)” value in data set [1] (melphalan IV 3.8 mg/kg/inj (total 15.2), days 12, 15, 18, 21, nadir day 22) was “+7.0%”; in data set [1] (melphalan IV 6.2 mg/kg/inj (total 24.8), days 12, 15, 18, 21, nadir day 24), −3.0%; in data set [1] (melphalan IV 10.0 mg/kg/inj (total 40.0), days 12, 15, 18, 21, nadir day 24), −14.6%; in data set [1] (melphalan IV 16.1 mg/kg/inj (total 48.3), treatments stopped on day 18, nadir day 22), −33.6%; in data set [2] (melphalan IV 3.8 mg/kg/inj (total 15.2), days 16, 19, 22, 25, nadir day 17), −1.2%; in data set [2] (melphalan IV 6.2 mg/kg/inj (total 24.8), days 16, 19, 22, 25, nadir day 32) it was −3.5%. Besides, the “% BWC at nadir (day)” value in data set [2] (melphalan IV 10.0 mg/kg/inj (total 40.0), days 16, 19, 22, 25, nadir day 26) is on record as −12.2%; in data set [2] (melphalan IV 16.1 mg/kg/inj (total 32.2), days 16, 19, nadir day 26), −33.4%. Also, in data set [1] (setting [6]), the drug-related deaths was 4/5. For the same compound, the “body weight loss at nadir” value in data set [1] (melphalan alone 16.1 mg/kg/injection, nadir on day 22) came to 33.6%. For the same compound, in data set [1] (setting [7]), the HNTD is reported as 10 mg/kg/inj. The Drug death in data set [2] (setting [8]) is 0/5; in data set [2] (setting [9]), 0/5; in data set [2] (setting [10]) it was 0/5; in data set [2] (melphalan IV 16.1 mg/kg/inj (total 32.2), days 16, 19, 16.1 mg/kg), 3 and 3/5. In addition, the log10 cell kill in data set [2] (setting [8]) is reported as 0.8; in data set [2] (setting [9]), 0.9; in data set [2] (setting [10]), 1.9. In addition, the “highest nontoxic dose (HNTD)” value in data set [2] (setting [7]) was found to be 10 mg/kg/inj.
As to “hu38SB19: humanized version of anti-CD38 monoclonal antibody 38SB19; heavy chain CDRs SEQ ID NOS: 13, 81, 15, light chain CDRs SEQ ID NOS: 16, 17, 18”, in data set [1] (setting [11]), the “T-C in days (1000 mg)” value is reported as 1.1 days and the “log10 cell kill gross” value is 0.2. Moreover, in data set [1] (hu38SB19 IV 40.0 mg/kg/inj (total 160.0), days 12, 15, 18, 21, 40 mg/kg), the Comments entry was “not active; also recorded: HDT-inactive”. For the same compound, the tolerability entry in data set [1] (mouse, in vivo, 40 mg/kg) is “well tolerated”. The “% BWC at nadir (day)” value in data set [1] (mouse, in vivo, iv, 40 mg/kg) is recorded as “+15.9%”. The “cross-reactivity with murine CD38” value in the data set with murine CD38 is on record as “lack of cross-reactivity”. Besides, the tolerability entry in data set [2] (mouse, in vivo, 40 mg/kg) is listed as “well tolerated”. Further, in data set [2] (mouse, in vivo, iv, 40 mg/kg), the “% BWC at nadir (day)” value was “+5.3%”, the Comments entry is “not active; also recorded: HDT-inactive”, the Drug death is listed as 0/5 and the “T-C in days (1000 mg)” value is recorded as 5.2 days. Further, the log10 cell kill in data set [2] (mouse, in vivo, iv, 40 mg/kg) is 0.5.
